# Assay results as given in patent publication US11034698B2, “Pyrazolo[ 1,5a]pyrimidine derivatives as IRAK4 modulators” (priority 2017, dated 2021).
# Target: human IRAK4 (Homo sapiens (Human), UniProt Q9NWZ3)
# Assay: IRAK4 kinase inhibition, Transcreener fluorescence polarization (ADP)
# Assay type: biochemical
# Conditions: not given
# Procedure, shortened: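 The enzyme was full-length human IRAK4 with an N-terminal His6 tag, expressed in insect cells. Kinase activity was read as ADP product by Transcreener fluorescence polarization.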
# Chain of human IRAK4 (Q9NWZ3 whole entry): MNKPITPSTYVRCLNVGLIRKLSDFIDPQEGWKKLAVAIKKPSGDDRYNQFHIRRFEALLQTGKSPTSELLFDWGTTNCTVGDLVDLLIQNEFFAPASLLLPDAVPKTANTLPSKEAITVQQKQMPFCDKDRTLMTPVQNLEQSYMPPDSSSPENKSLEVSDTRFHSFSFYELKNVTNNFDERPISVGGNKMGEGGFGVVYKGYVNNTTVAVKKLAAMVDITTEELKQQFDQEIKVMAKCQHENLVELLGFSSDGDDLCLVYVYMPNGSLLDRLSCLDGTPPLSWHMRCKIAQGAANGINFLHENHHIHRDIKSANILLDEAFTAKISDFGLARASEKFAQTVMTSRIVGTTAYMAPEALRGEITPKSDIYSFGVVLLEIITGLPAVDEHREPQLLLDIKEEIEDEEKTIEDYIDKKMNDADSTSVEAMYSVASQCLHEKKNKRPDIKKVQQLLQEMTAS
row,Structure (SMILES),Ki [nM]
1,"C[C@]1(CCC#N)COc2cc(N3CCOCC3)c(NC(=O)c3cnn4cccnc34)cc2C1 (single isomer, unassigned) [Example 59]",30
2,"CC(C)(O)[C@H](F)CN1Cc2cc(NC(=O)c3cnn4cccnc34)c(O[C@@H]3CCNC3)cc2C1=O (single isomer, unassigned) [Example 63]",5.3

# Same assay, conditions: recombinant full-length His6-IRAK4 1.25 nM; 125 uM ATP; 125 uM peptide; 90 min; ATP Km 642 uM; read-out: IRAK4 Ki
row,Structure (SMILES),Ki [nM]
1,"Cn1cc(COc2cc3c(cc2NC(=O)c2cnn4cccnc24)CN(C[C@@H](F)C(C)(C)O)C3=O)cn1 [Example 60, (R)—N-(2-(2-Fluoro-3-hydroxy-3-methylbutyl)-6-((1-methyl-1H-pyrazol-4-yl)methoxy)-1-oxoisoindolin-5-yl)pyrazolo[1,5-a]pyrimidine-3-carboxamide]",1.1
2,"C[C@@]1(CCC#N)COc2cc(N3CCOCC3)c(NC(=O)c3cnn4cccnc34)cc2C1 [Example 58, (S)—N-(3-(2-Cyanoethyl)-3-methyl-7-morpholinochroman-6-yl)pyrazolo[1,5-a]pyrimidine-3-carboxamide]",19
3,"CN(C)c1cc2c(cc1NC(=O)c1cnn3ccc(C(=O)NC4CC4)nc13)CN(C[C@@H](F)C(C)(C)O)C2=O [Example 132, (R)—N^5-Cyclopropyl-N^3-(6-(dimethylamino)-2-(2-fluoro-3-hydroxy-3-methylbutyl)-1-oxoisoindolin-5-yl)pyrazolo[1,5-a]pyrimidine-3,5-dicarboxamide]",19
4,"CC(C)(O)[C@H](F)CN1Cc2cc(NC(=O)c3cnn4cccnc34)c(N3CCN(C4COC4)CC3)cc2C1=O [Example 105, (R)-N-(2-(2-Fluoro-3-hydroxy-3-methylbutyl)-6-(4-(oxetan-3-yl)piperazin-1-yl)-1-oxoisoindolin-5-yl)pyrazolo[1,5-a]pyrimidine-3-carboxamide]",3.4
5,"CC(C)N1CCN(c2cc3c(cc2NC(=O)c2cnn4cccnc24)CN(C[C@@H](F)C(C)(C)O)C3=O)CC1 [Example 113, (R)-N-(2-(2-Fluoro-3-hydroxy-3-methylbutyl)-6-(4-isopropylpiperazin-1-yl)-1-oxoisoindolin-5-yl)pyrazolo[1,5-a]pyrimidine-3-carboxamide]",7.5
6,"CCc1oc(=O)[nH]c1CN1CCN(c2cc3c(cc2NC(=O)c2cnn4cccnc24)CC(C)(C)O3)CC1 [Example 15, N-(6-(4-((5-Ethyl-2-oxo-2,3-dihydrooxazol-4-yl)methyl)piperazin-1-yl)-2,2-dimethyl-2,3-dihydrobenzofuran-5-yl)pyrazolo[1,5-a]pyrimidine-3-carboxamide]",9.4
7,"COc1cc2c(cc1NC(=O)c1cnn3ccc(C4CCNC4=O)nc13)CC(C)(C)O2 (centres unmarked) [Example 35, N-(6-Methoxy-2,2-dimethyl-2,3-dihydrobenzofuran-5-yl)-5-(2-oxopyrrolidin-3-yl)pyrazolo[1,5-a]pyrimidine-3-carboxamide]",100
8,"CC(=O)Nc1ccn2ncc(C(=O)Nc3cc4c(cc3N(C)C)C(=O)N(C[C@@H](F)C(C)(C)O)C4)c2n1 [Example 131, (R)-5-Acetamido-N-(6-(dimethylamino)-2-(2-fluoro-3-hydroxy-3-methylbutyl)-1-oxoisoindolin-5-yl)pyrazolo[1,5-a]pyrimidine-3-carboxamide]",6.4
9,"Cc1ccc(-c2cc3c(cc2NC(=O)c2cnn4cccnc24)CN(C[C@@H](F)C(C)(C)O)C3=O)nc1 [Example 146, (R)-N-(2-(2-Fluoro-3-hydroxy-3-methylbutyl)-6-(5-methylpyridin-2-yl)-1-oxoisoindolin-5-yl)pyrazolo[1,5-a]pyrimidine-3-carboxamide]",8.1
10,"CC1(C)Cc2cc(NC(=O)c3cnn4cccnc34)c(N3CCN(C[C@@H]4CCCC(=O)N4)CC3)cc2O1 [Example 6, (S)-N-(2,2-Dimethyl-6-(4-((6-oxopiperidin-2-yl)methyl)piperazin-1-yl)-2,3-dihydrobenzofuran-5-yl)pyrazolo[1,5-a]pyrimidine-3-carboxamide]",5.3
11,"CC1(C)Cc2cc(NC(=O)c3cnn4cccnc34)c(OC[C@H]3C[C@@H]4NCCO[C@H]4C3)cc2O1 [Example 30, N-(2,2-Dimethyl-6-(((4aS,6S,7aS)-octahydrocyclopenta[b][1,4]oxazin-6-yl)methoxy)-2,3-dihydrobenzofuran-5-yl)pyrazolo[1,5-a]pyrimidine-3-carboxamide]",66
12,"CC(C)N1Cc2cc(NC(=O)c3cnn4cccnc34)c(N(C)C)cc2C1=O [Example 95, N-[6-(Dimethylamino)-2-isopropyl-1-oxo-isoindolin-5-yl]pyrazolo[1,5-a]pyrimidine-3-carboxamide]",1.9
13,"CC(C)(O)[C@H](F)CN1Cc2cc(NC(=O)c3cnn4cccnc34)c(O[C@H]3CCNC3)cc2C1=O [Example 62, N-[2-[(2R)-2-Fluoro-3-hydroxy-3-methyl-butyl]-1-oxo-6-[(3S)-pyrrolidin-3-yl]oxy-isoindolin-5-yl]pyrazolo[1,5-a]pyrimidine-3-carboxamide]",9.2
14,"CC(C)(O)[C@H](F)CN1Cc2cc(NC(=O)c3cnn4cccnc34)c(O[C@@H]3CCOC3)cc2C1=O [Example 83, N-(2-((R)-2-Fluoro-3-hydroxy-3-methylbutyl)-1-oxo-6-(((R)-tetrahydrofuran-3-yl)oxy)isoindolin-5-yl)pyrazolo[1,5-a]pyrimidine-3-carboxamide]",0.71
15,"CC(C)(O)[C@H](F)CN1Cc2cc(NC(=O)c3cnn4cc(O)cnc34)c(N3CCOCC3)cc2C1=O [Example 133, (R)—N-(2-(2-Fluoro-3-hydroxy-3-methylbutyl)-6-morpholino-1-oxoisoindolin-5-yl)-6-hydroxypyrazolo[1,5-a]pyrimidine-3-carboxamide]",5.7
16,"O=C(Nc1cc2c(cc1N1CCOCC1)C(=O)N(CC1CCOCC1)C2)c1cnn2cccnc12 [Example 92, N-[6-Morpholino-1-oxo-2-(tetrahydropyran-4-ylmethyl)isoindolin-5-yl]pyrazolo[1,5-a]pyrimidine-3-carboxamide]",3.7
17,"CC(C)(O)[C@H](F)CN1Cc2cc(NC(=O)c3cnn4cccnc34)c(O[C@H]3C[C@@H](Cl)C3)cc2C1=O [Example 64, N-[6-(3-Chlorocyclobutoxy)-2-[(2R)-2-fluoro-3-hydroxy-3-methyl-butyl]-1-oxo-isoindolin-5-yl]pyrazolo[1,5-a]pyrimidine-3-carboxamide]",0.51
18,"COc1cc2c(cc1NC(=O)c1cnn3ccc(N(C)C4CC4)nc13)CC(C)(C)O2 [Example 38, 5-(Cyclopropyl(methyl)amino)-N-(6-methoxy-2,2-dimethyl-2,3-dihvdrobenzofuran-5-yl)pyrazolo[1,5-a]pyrimidine-3-carboxamide]",180
19,"CC1(C)Cc2cc(NC(=O)c3cnn4cccnc34)c(N3CCN(Cc4[nH]cnc4Cl)CC3)cc2O1 [Example 10, N-(6-(4-((4-Chloro-1H-imidazol-5-yl)methyl)piperazin-1-yl)-2,2-dimethyl-2,3-dihydrobenzofuran-5-yl)pyrazolo[1,5-a]pyrimidine-3-carboxamide]",2.3
20,"CC(C)(O)[C@H](F)CN1Cc2cc(NC(=O)c3cnn4cccnc34)c(OC3CCCC3)cc2C1=O [Example 80, (R)-N-(6-(Cyclopentyloxy)-2-(2-fluoro-3-hydroxy-3-methylbutyl)-1-oxoisoindolin-5-yl)pyrazolo[1,5-a]pyrimidine-3-carboxamide]",0.97
21,"CC(C)N1Cc2cc(NC(=O)c3cnn4cccnc34)c(N(C)C)c(CO)c2C1=O [Example 151, N-(6-(Dimethylamino)-7-(hydroxymethyl)-2-isopropyl-1-oxoisoindolin-5-yl)pyrazolo[1,5-a]pyrimidine-3-carboxamide]",8.2
